In ChEMBL document CHEMBL3585294, “LAT Transport Inhibitors from Pittosporum venulosum Identified by NMR Fingerprint Analysis” (J Nat Prod, 2015):

Test: Inhibition of LAT in human LNCAP cells assessed as inhibition of [3H]-L-leucine transport by liquid scintillation counting analysis
Format: cell-based

Work on `NC1(C(=O)O)CC2CCC1C2` (stereo not given) yielded an IC50 of 4060 µM.

In the case of `CC(=O)O[C@H]1[C@H](OC(C)(C)[C@H]2CC=C(C)CC2)O[C@H](C)[C@H](O)[C@@H]1OC(=O)C=C(C)C`, the IC50 is reported as 8.12 µM.

`C/C=C(/C)C(=O)O[C@H]1[C@@H](O)[C@@H](C)O[C@@H](OC(C)(C)[C@H]2CC=C(C)CC2)[C@@H]1OC(C)=O` showed an IC50 of 29.2 µM.

Compound `CC[C@H](C)C(=O)O[C@H]1[C@@H](O)[C@@H](C)O[C@@H](OC(C)(C)[C@H]2CC=C(C)CC2)[C@@H]1OC(C)=O` has an IC50 of 11.5 µM.

Work on `CC[C@H](C)C(=O)O[C@@H]1[C@H](O)[C@@H](OC(C)=O)[C@H](OC(C)(C)[C@H]2CC=C(C)CC2)O[C@@H]1C` yielded an IC50 of 39.7 µM.
